Reference: US20220389006A1, “SALTS AND FORMS OF AN ESTROGEN RECEPTOR MODULATOR” (Recurium IP Holdings, LLC, priority 2019, published 2022)
Read-outs that look alike come from different tables or passages of the source.

How the values were obtained:
MCF7 = experiment: Breast Cancer Cell Proliferation Assay (MCF-7); format: cell-based; settings: 5 days of compound exposure, Cell Titer-Glo
Procedure: MCF7 was expanded and maintained in the medium (Phenol red free DMEM/F12 (Hyclone SH30272.01) NEAA (Gibco 11140-050) Na-pyruvate (Gibco 11360-070) and Re-stripped Charcoal stripped FBS (Gemini 100-119)). The cells were adjusted to a concentration of 3,000 cells per mL in the above media, and the cells were incubated (37° C., 5% CO2). The following day a 10 point, serial dilution of compounds was added to the cells at a final concentration ranging from 10-0.000005 μM for the test compounds (17β-estradiol was used as a control). Additional cells were plated in 30 wells to serve as the day 1 (pretreatment) comparison. After 5 days of compound exposure, Cell Titer-Glo reagent was added to the cells, and the relative luminescence units (RLUs) of each well was determined. Cell Titer-Glo was also added to 32 μL of medium without cells to obtain a background value. The plates were allowed to incubate at room temperature for 10 minutes to stabilize luminescent signal, and the luminescence signal was recorded with EnSpire. The relative increase in cell number of each sample is determined as follows: (RLU sample-RLU background/RLU estrogen only treated cells-RLU background)×100=% inhibition.

[1] = Crystallinity / form change upon heating (XRPD); format: physicochemical
From the text: For XRPD analysis, PANalytical X'Pert3 X-ray powder diffractometer was used.

[2] = HPLC purity before and after heating to 100° C. and 150° C.; format: physicochemical
Procedure: (§1) Form A retains its crystallinity to a temperature of about 150° C. […] In addition, Form A can be heated to at least to 100° C. that can allow for the removal of any trapped solvent without erosion of purity, which can be beneficial. The purity of initial Form A, Form A after being heated to 100° C., and Form A after being heated to 150° C. are shown.

[3] = TGA of samples heated to 150° C. (FIG. 34); format: physicochemical
Procedure: FIG. 34 provides a TGA thermogram for (1) Form A for a sample heated to 150° C., and (2) a sample initially dried under vacuum for 3 hours at 40° C.
as §1
TGA data were collected using a TA Discovery 5500 TGA from TA Instruments. DSC was performed using a TA Discovery 2500 DSC from TA Instruments.

[4] = Crystallinity before and after grinding (XRPD, FIG. 38); format: physicochemical; settings: for crystallinity after grinding: grinding with a mortar and pestle for approximately 5 minutes, XRPD FIG. 38
From the text: (§2) As shown by the top spectrum, the sharp peaks of the HCl salt of Compound A have flattened out compared to the bottom spectrum. […] The data provide in Table 4 further supports the conclusion that Form A maintains its crystallinity compared to the mesylate salt of Compound A.

[5] = Solid-state storage stability of free base Form I at 5, 40 and 60° C. (HPLC); format: physicochemical; settings: for Area % of A / Purity vs. Initial %: HPLC
Procedure: Form I was stable in its solid state at 5° C. for 7 days, but degraded upon storage at 40° C. and 60° C.
In Table 1, “A” represents Compound A, and the data was obtained via HPLC.

[6] = Crystallinity during sample preparation (XRPD, FIG. 37); format: physicochemical
From the text: FIG. 37 provides a representative XRPD pattern of a second HCl salt of Compound A (prior to sample preparation and after re-preparation of the sample).
as §2

CC1Cc2c([nH]c3ccccc23)C(c2c(F)cc(C=CC(=O)O)cc2F)N1C12CC(C1)C2.O=S(=O)(O)O (centres unmarked) [Form A]
IC50 (MCF7): 0.2 nM
Form change ([1]; Heated to 100° C.): No
Form change ([1]; Heated to 150° C.): No
temperature to which crystallinity is retained ([1]; XRPD, FIG. 31): about 150 °C
HPLC peak No. 2, RRT 0.55 (degradation) ([2]; After heating to 100° C.): 0.67
HPLC peak No. 3, RRT 0.59 (degradation) ([2]; After heating to 100° C.): <0.05
HPLC peak No. 5, RRT 0.90 (degradation) ([2]; After heating to 100° C.): <0.05
HPLC peak No. 6, RRT 0.94 (degradation) ([2]; After heating to 100° C.): <0.05
HPLC peak No. 8, RRT 0.97 (degradation) ([2]; After heating to 100° C.): <0.05
HPLC peak No. 9, RRT 1.00 (Compound A), purity ([2]; After heating to 100° C.): 99.07
HPLC peak No. 2, RRT 0.55 (degradation) ([2]; After heating to 150° C.): 0.76
HPLC peak No. 3, RRT 0.59 (degradation) ([2]; After heating to 150° C.): 0.18
HPLC peak No. 5, RRT 0.90 (degradation) ([2]; After heating to 150° C.): 0.21
HPLC peak No. 6, RRT 0.94 (degradation) ([2]; After heating to 150° C.): 0.16
HPLC peak No. 8, RRT 0.97 (degradation) ([2]; After heating to 150° C.): 0.24
HPLC peak No. 9, RRT 1.00 (Compound A), purity ([2]; After heating to 150° C.): 97.98
heat-promoted degradation ([2]; HPLC, heated to 100° C. and 150° C.): resistant to heat-promoted degradation
Purity (area %) ([2]; Heated to 100° C.): 99.1 area %
Purity (area %) ([2]; Heated to 150° C.): 98.0 area %
Purity (area %) ([2]; Initial): 99.1 area %
HPLC peak No. 2, RRT 0.55 (degradation) ([2]; Initial (before heating)): 0.67
HPLC peak No. 3, RRT 0.59 (degradation) ([2]; Initial (before heating)): <0.05
HPLC peak No. 5, RRT 0.90 (degradation) ([2]; Initial (before heating)): <0.05
HPLC peak No. 6, RRT 0.94 (degradation) ([2]; Initial (before heating)): <0.05
HPLC peak No. 8, RRT 0.97 (degradation) ([2]; Initial (before heating)): <0.05
HPLC peak No. 9, RRT 1.00 (Compound A), purity ([2]; Initial (before heating)): 99.07
degradation (FIG. 34) ([3]; sample heated directly to 150 C): 4.47%
degradation (FIG. 34) ([3]; sample heated to a lower temperature (<100° C.) and then to 150° C.): 3.54%
Crystallinity ([4]; After grinding for 5 mins.): Decreased crystallinity
Crystallinity ([4]; Initial): Crystalline
crystallinity after grinding [4]: maintain its crystallinity
stability after one week (25° C. and 60% relative humidity): stable
stability after one week (40° C. and 75% relatively humidity): stable

CC1Cc2c([nH]c3ccccc23)C(c2c(F)cc(C=CC(=O)O)cc2F)N1C12CC(C1)C2 (centres unmarked) [Form I]
stability in solid state ([5]; 5° C. for 7 days): stable
Area % of A ([5]; 5° C., 1 Day): 98.24%
Purity vs. Initial % ([5]; 5° C., 1 Day): 99.8%
Area % of A ([5]; 5° C., 3 Days): 98.09%
Purity vs. Initial % ([5]; 5° C., 3 Days): 99.6%
Area % of A ([5]; 5° C., 7 Days): 98.14%
Purity vs. Initial % ([5]; 5° C., 7 Days): 99.7%
Area % of A ([5]; 40° C., 1 Day): 97.60%
Purity vs. Initial % ([5]; 40° C., 1 Day): 99.1%
Area % of A ([5]; 40° C., 3 Days): 96.79%
Purity vs. Initial % ([5]; 40° C., 3 Days): 98.3%
Area % of A ([5]; 40° C., 7 Days): 96.18%
Purity vs. Initial % ([5]; 40° C., 7 Days): 97.7%
Area % of A ([5]; 60° C., 1 Day): 93.42%
Purity vs. Initial % ([5]; 60° C., 1 Day): 94.9%
Area % of A ([5]; 60° C., 3 Days): 88.31%
Purity vs. Initial % ([5]; 60° C., 3 Days): 89.7%
Area % of A ([5]; 60° C., 7 Days): 80.95%
Purity vs. Initial % ([5]; 60° C., 7 Days): 82.2%
degradation ([5]; after 7 days at 40° C.): approximately 2%
degradation ([5]; after 7 days at 60° C.): approximately 18%
crystallinity upon heating ([1]; XRPD, FIG. 30 (initially, after 1, 3 and 7 days)): lose crystallinity

C[C@@H]1Cc2c([nH]c3ccccc23)[C@@H](c2c(F)cc(/C=C/C(=O)O)cc2F)N1C12CC(C1)C2 [Free base of Compound A, (E)-3-(4-((1R,3R)-2-(Bicyclo[1.1.1]pentan-1-yl)-3-methyl-2,3,4,9-tetrahydro-1H-pyrido[3,4-b]indol-1-yl)-3,5-difluorophenyl)acrylic acid]
IC50 (MCF7; Homo sapiens, MCF7, 120 h): 0.4 nM

CC1Cc2c([nH]c3ccccc23)C(c2c(F)cc(C=CC(=O)O)cc2F)N1C12CC(C1)C2.Cl (centres unmarked) [HCl salt of Compound A]
crystallinity during sample preparation [6]: variable crystallinity

CC1Cc2c([nH]c3ccccc23)C(c2c(F)cc(C=CC(=O)O)cc2F)N1C12CC(C1)C2.CS(=O)(=O)O (centres unmarked) [Mesylate salt of Compound A]
Form change ([1]; Heated to 100° C.): No
Form change ([1]; Heated to 150° C.): No
Purity (area %) ([2]; Heated to 100° C.): 98.4 area %
Purity (area %) ([2]; Heated to 150° C.): 97.1 area %
Purity (area %) ([2]; Initial): 98.4 area %
Crystallinity ([4]; After grinding for 5 mins.): Amorphous
Crystallinity ([4]; Initial): Crystalline
crystallinity after grinding [4]: loss of crystallinity
